Measured values: PMC7822874, “Chemoprotective antimalarials identified through quantitative high-throughput screening of Plasmodium blood and liver stage parasites” (Scientific Reports, 2021)
Like-named read-outs stand apart in the source and are kept apart here. Peptide text beside a SMILES is read from it. * marks the point of attachment. Boc = CC(C)(C)OC(=O)*; OBn = c1ccc(CO*)cc1

Test system: Plasmodium falciparum Dd2 asexual blood stage parasites
Assay: microbe, parasite or virus in culture
Parameters: species or system Plasmodium falciparum Dd2 in human erythrocytes; single determination (one 11-point concentration-response curve)
Conditions: Plasmodium falciparum, DD2, Erythrocyte, 72 h

Structure (SMILES)	AC50 (read-out: AC50)	AC50
CC1CC(C)CN(C(=O)c2ccc3ccccc3c2)C1 (stereo not shown) [MLS001161774-01]	2.37 µM	–
Oc1ccccc1C1=NN(c2ccccc2)C(c2ccccc2)C1 (stereo not shown) [MLS001163829-01]	7.5 µM	–
Cc1ccc(N(C)C2=NC(=O)CS2)cc1Cl [MLS001164579-01]	9.44 µM	–
COc1ccc(CN2C(=O)C(C)N(C(=O)c3c(F)cccc3F)c3ccccc32)cc1 (stereo not shown) [MLS001166304-01]	7.5 µM	–
CCN(CC(O)c1cccc(O)c1)C(=O)C12CC3CC(CC(C3)C1)C2 (stereo not shown) [MLS001166662-01]	4.73 µM	–
CS(=O)(=O)c1ccc(C(=O)Nc2ccc(-c3nc4ccccc4[nH]3)cc2)cc1 [MLS001166841-01]	7.5 µM	–
COC1=CC(=O)C(=C(C)N/N=C(\S)NCCc2ccccc2)C=C1 [MLS001170945-01]	3.35 µM	–
OC(c1ccc(Cl)cc1)C(CN1CCOCC1)c1ccccc1 (stereo not shown) [MLS001173582-01]	2.99 µM	–
COc1ccccc1NCc1cc(=O)oc2c(C)c(O)ccc12 [MLS001175266-01]	5.96 µM	–
COc1ccc(CCN(C)/C(S)=N/c2cccc(C)c2)cc1OC [MLS001177860-01]	2.11 µM	–
CC(C)c1ccccc1OCC(O)CN(CC(O)COc1cccc2ccccc12)C(C)C (stereo not shown) [MLS001179995-01]	2.37 µM	–
Cc1ccc(C(=O)Nc2cccc(NC(=O)c3ccc(C)c([N+](=O)[O-])c3)n2)cc1[N+](=O)[O-] [MLS001195117-01]	–	15 µM
Oc1ccc(-c2ccccc2)cc1CN1CCCCCC1 [MLS001195126-01]	0.266 µM	–
COc1ccccc1C1CC(c2ccccc2)=NN1C(=O)c1ccccc1 (stereo not shown) [MLS001197331-01]	2.37 µM	–
COc1cc(C2Nc3ccc4ccccc4c3C3=C2C(=O)CC(C)(C)C3)ccc1OC(C)C(=O)O (stereo not shown) [MLS001197433-01]	6.68 µM	–
CCOc1ccc(CCNC(=O)Nc2ccccc2)cc1OCC [MLS001197603-01]	5.31 µM	–
CCCCN(CC)CCNC(S)=Nc1ccc2nc(N3CCN(C)CC3)cc(C)c2c1 [MLS001197626-01]	5.96 µM	–
CC1C(=O)C(C)C(c2cc(Cl)ccc2O)NC1c1cc(Cl)ccc1O (stereo not shown) [MLS001197743-01]	6.68 µM	–
Cc1[nH]c2ccc(OC(F)(F)F)cc2c1CCNCc1cccc([N+](=O)[O-])c1 [MLS001198398-01]	4.73 µM	–
CCCCCCC(O)(c1ccc(OC)cc1)C(CN1CCOCC1)c1ccccc1 (stereo not shown) [MLS001198921-01]	4.22 µM	–
CCCCCC(O)(c1ccc(OC)cc1)C(CN1CCOCC1)c1ccccc1 (stereo not shown) [MLS001198946-01]	2.11 µM	–
COc1ccc(C(O)(CCC(C)C)C(CN2CCOCC2)c2ccccc2)cc1 (stereo not shown) [MLS001198958-01]	5.31 µM	–
Cc1cc(N(C)Cc2ccccc2)nc2cc(O)ccc12 [MLS001199318-01]	2.37 µM	–
NC1=NC(c2ccccc2C(F)(F)F)N(c2ccc(F)c(Cl)c2)C(N)=N1 (stereo not shown) [MLS001199775-01]	11.9 µM	–
COc1ccc(C(O)(CCC(C)C)C(CN2CCOCC2)c2ccc(Cl)cc2)cc1 (stereo not shown) [MLS001200330-01]	6.68 µM	–
CCCCC(O)(c1ccc(F)cc1)C(CN1CCOCC1)c1ccc(Cl)cc1 (stereo not shown) [MLS001200342-01]	5.96 µM	–
CCCC(O)(c1ccc(Cl)cc1)C(CN1CCOCC1)c1ccc(Cl)cc1 (stereo not shown) [MLS001200366-01]	4.73 µM	–

Structure (SMILES)	AC50 (read-out: AC50)	AC50
Cc1ccccc1Nc1nc(-c2cccnc2)cs1 [MLS001206645-01]	9.44 µM	–
Cc1ccc2nc(-c3ccc(O)c(O)c3)cn2c1 [MLS001209043-01]	13.3 µM	–
Cc1oc2c(CN3CCCCC3)c(O)ccc2c(=O)c1-c1ccc(Cl)cc1 [MLS001214839-01]	5.31 µM	–
CCOc1ccc2[nH]c3c(NCCN(C)C)ncnc3c2c1 [MLS001214990-01]	16.8 µM	–
CCOC(=O)COn1c(-n2nc(C)cc2C)nc2ccccc2c1=O [MLS001215150-01]	9.44 µM	–
Cc1cc(C)c2oc(=O)cc(CN3CCCCC3)c2c1 [MLS001216359-01]	13.3 µM	–
O=c1nc(C2CCN(S(=O)(=O)c3ccc4c(c3)OCCO4)CC2)[nH]c2c1nnn2Cc1ccc(F)cc1 [MLS001216943-01]	8.41 µM	–
Cc1ccccc1N(C(=O)c1snc(C(N)=O)c1N)C(C(=O)NCC1CCCO1)c1ccc(N(C)C)cc1 (stereo not shown) [MLS001218424-01]	7.5 µM	–
O=C(NC1CC1)C1CCN(S(=O)(=O)c2ccc(Cl)cc2)CC1 [MLS001220436-01]	13.3 µM	–
CCC(C)(C)n1nnnc1C(c1ccccc1OC)N1CCN(C(=O)c2ccco2)CC1 (stereo not shown) [MLS001221981-01]	15 µM	–
CCC(C)c1ccc(N(C(=O)c2ccco2)C(C(=O)NC2CCCC2)c2cccnc2)cc1 (stereo not shown) [MLS001222477-01]	6.68 µM	–
O=C(Nc1ccncc1)Nc1ccc(Cl)cc1 [MLS001224591-01]	10.6 µM	–
O=c1nc(C2CCN(S(=O)(=O)/C=C/c3ccccc3)CC2)[nH]c2c1nnn2Cc1ccc(F)cc1 [MLS001229566-01]	13.3 µM	–
COc1ccc(Nc2ccccc2NC(=O)c2ccccc2Br)cc1 [MLS001233685-01]	5.96 µM	–
CC(C)CC(NC(=O)C(NC(=O)OC(C)(C)C)C(C)C)C(=O)NC(CCC(=O)OCc1ccccc1)C(N)=O (stereo not drawn) [MLS001304946-01] (Boc-Val-Leu-Glu(OBn)-NH2; configuration not given here)	8.41 µM	–
CCOC(=O)c1c(CSC(=N)N)n(-c2ccc(C)cc2)c2cc(Br)c(OC(C)=O)cc12 [MLS001304955-01]	5.96 µM	–
CCCn1c(=N)c(C(=O)NCc2ccc3c(c2)OCO3)cc2c(=O)n3cccc(C)c3nc21 [MLS001305712-01]	10.6 µM	–
CC(=O)Nc1ccc(Nc2cc(C)nc(Nc3ccc(NC(C)=O)cc3)n2)cc1 [MLS001359830-01]	3.35 µM	–
O=C(NCCc1c[nH]c2ccccc12)C(=O)Nc1cc2c3c(c1)CC(=O)N3CCC2 [MLS001361834-01]	10.6 µM	–
CCCCCCSc1ccc([C@@H]2[C@H]3C(=O)N(CC)C(=O)[C@H]3[C@]3(C(=O)OC)CCCCN23)cc1OC [MLS001362153-01]	–	15 µM
CCCCCCSc1ccc([C@H]2N[C@@](Cc3ccccc3)(C(=O)OC)[C@H]3C(=O)N(CC)C(=O)[C@@H]23)cc1 [MLS001362744-01]	3.35 µM	–
Clc1ccc(C(Cn2ccnc2)OCc2csc3c(Cl)cccc23)c(Cl)c1 (stereo not shown) [MLS002154122-01]	2.37 µM	–
CC(C(=O)N1CCCC1)N1CCN(S(=O)(=O)c2ccc(C(C)(C)C)cc2)CC1 (stereo not shown) [MLS002156464-01]	3.35 µM	–
CC(Oc1ccccc1)C(=O)Nc1nc(-c2ccccn2)cs1 (stereo not shown) [MLS002158763-01]	8.41 µM	–
O=S(=O)(c1ccc(F)cc1)N1CCN(C(S)=NC2CC2)CC1 [MLS002161026-01]	3.35 µM	–
COc1ccccc1NS(=O)(=O)c1cc(NC(=O)c2cccc(S(=O)(=O)N(C)C)c2)ccc1N1CCOCC1 [MLS002162226-01]	7.5 µM	–
CCN(CC)CCNC(=O)c1ccc(NC(=O)c2cccc(S(=O)(=O)N3CCc4ccccc43)c2)cc1 [MLS002169644-01]	5.31 µM	–

Structure (SMILES)	AC50 (read-out: AC50)	AC50
CC(C(=O)NC1CCCC1)N1CCN(S(=O)(=O)c2ccc(C(C)(C)C)cc2)CC1 (stereo not shown) [MLS002169740-01]	8.41 µM	–
CC(=O)NCCC(=O)Nc1cc(S(=O)(=O)N2CCCCC2)ccc1N1CCCCC1 [MLS002181171-01]	7.5 µM	–
O=C1N(c2ccccc2C(F)(F)F)O[C@@]1(c1ccccc1)C1CCCCC1 [MLS002206598-01]	5.31 µM	–
O=C1N(c2ccccc2C(F)(F)F)O[C@@]1(c1ccccc1)C1CCCC1 [MLS002206604-01]	2.99 µM	–
Oc1ccc(Cl)cc1CNCC1CCCCC1 [MLS002207458-01]	4.22 µM	–
O=C1C=C(c2cccc(CO)c2)C[C@@H](c2ccc(Cl)cc2)C1 [MLS002302575-01]	3.76 µM	–
COC(=O)C1=C(c2ccc(-c3ccccc3)c(F)c2)C[C@@H]2CC[C@H]1N2C(=O)NCc1cccc2ccccc12 [MLS002302696-01]	10.6 µM	–
COC(=O)C1=C(c2ccc(OC(F)(F)F)cc2)C[C@@H]2CC[C@H]1N2C(=O)NCc1cccc2ccccc12 [MLS002302720-01]	3.35 µM	–
COC(=O)C1=C(c2ccc(OC)c(OC)c2)C[C@@H]2CC[C@H]1N2C(=O)NCc1cccc2ccccc12 [MLS002302726-01]	3.35 µM	–
COc1ccc(-c2c(C#Cc3ccsc3)c3cc(-c4cccc5[nH]ccc45)ccc3n2C)cc1 [MLS002391587-01]	6.68 µM	–
COc1cc(C#Cc2c(-c3cncn3C)n(C)c3ccc(-c4ccc(OC)c(OC)c4)cc23)cc(OC)c1 [MLS002391599-01]	4.73 µM	–
COc1ccc(-c2cc(C(=O)Nc3cc(OC)cc(C(=O)Nc4cccc(C(F)(F)F)c4)c3)[nH]n2)cc1 [MLS003105955-01]	5.31 µM	–
COc1cc(NC(=O)c2ccc(N)nc2)cc(C(=O)Nc2cccc(C(F)(F)F)c2)c1 [MLS003105961-01]	5.31 µM	–
CCN1CCN(Cc2ccc(NC(=O)c3ccc(C)c(NC(=O)C4=NN(c5ccccc5)C(=O)C4)c3)cc2C(F)(F)F)CC1 [MLS003105987-01]	–	8.41 µM
CCCNCC(O)COc1ccccc1C(=O)CCc1ccccc1 (stereo not shown) [NCGC00015819-06]	0.841 µM	–
CC(C)C[C@@H](NC(=O)[C@@H](O)[C@H](N)Cc1ccccc1)C(=O)O [NCGC00093685-01]	2.99 µM	–
N#Cc1nn(-c2c(Cl)cc(C(F)(F)F)cc2Cl)c(N)c1[S+]([O-])C(F)(F)F (stereo not shown) [NCGC00094574-06]	9.44 µM	–
CO/N=C1\CN(c2nc3c(cc2F)c(=O)c(C(=O)O)cn3C2CC2)CC1CN (stereo not shown) [NCGC00095182-01]	9.44 µM	–
COc1ccc(-n2nc3ccc(NC(=O)c4ccc(-c5cc(Cl)ccc5Cl)o4)cc3n2)cc1 [NCGC00098498-01]	4.22 µM	–
CC(C)Oc1ccc(C(=O)Nc2ccc3oc(-c4ccncc4)nc3c2)cc1 [NCGC00098730-01]	8.41 µM	–
Cc1cccc(-n2c(/C=C/c3c(C)[nH]c4ccccc34)nc3ccccc3c2=O)c1 [NCGC00098794-01]	3.76 µM	–
Cc1ccccc1NC(=O)c1c(NC(=O)c2ccco2)sc2c1CCC(C(C)(C)C)C2 (stereo not shown) [NCGC00099842-01]	13.3 µM	–
COC(=O)c1ccc2nc(C)cc(Nc3ccc(O)cc3)c2c1 [NCGC00099848-01]	9.44 µM	–
Cc1ccc(-c2nnc(Nc3ccc(O)cc3)c3ccccc23)cc1[S+](=O)([O-])N1CCN(C)CC1 [NCGC00099994-01]	6.68 µM	–
COC(=O)c1ccc(Nc2nnc(-c3ccc(C)c([S+](=O)([O-])N4CCN(C)CC4)c3)c3ccccc23)cc1 [NCGC00099996-01]	8.41 µM	–
